What was measured:
aortic rings = experiment: β-amyloid augmentation of phenylephrine (PE) induced contraction of aortic rings; set-up: species or system rat; conditions: for effect on β-amyloid induced enhancement of PE mediated contraction: β-amyloid 5×10^-7 M, PE 4×10^-8 M, L-NMMA 10^-4 M, indomethacin 10^-5 M, SQ 29548 10^-5 M, catalase 1000 units/ml
Protocol: (§1) The blood vessel preparations were mounted on stainless steel hooks attached to a force-displacement transducer and equilibrated under the optimum tension of 1.3 g for a period of sixty minutes in a tissue bath (10 ml) containing oxygenated (5% CO2 in O2) Kreb's buffer at 37° C. The buffer was changed every fifteen minutes. After equilibration for sixty minutes the viability of the blood vessel with intact endothelium was established by constricting the blood vessel using phenylephrine ([…]). This dose of phenylephrine elicited 80% of the maximum response. […] The vessel preparations were washed for fifteen minutes before various manipulations as described below.
The procedure was then repeated following incubation of the tissue with 10^-6 M β-amyloid for fifteen minutes (P1). The tissue was then rinsed and contractions repeated twice following fifteen minute incubation (P2 & P3) without further addition of β-amyloid. Arrows are shown for points of addition for P3.
Following a fifteen minute incubation, the preparations were contracted with 10^-7 M phenylephrine (PE) as described earlier. Control contractions with PE alone were carried out in presence of the various test compounds. Values represent the mean±SEM of four or more experiments. The heat-inactivated SOD was prepared by placing it in boiling water for thirty minutes followed by cooling prior to use. The hydrogen peroxide-inactivated SOD was prepared by exposing SOD to 10 mM H2 O2 for thirty minutes at pH 8.5 and subsequent separation using Microcon filtration system. The amyloid induced PE contraction was blocked by active SOD. Neither albumin or inactivated SOD had any effect on the amyloid activity.
The effect of preincubation of blood vessel with 10^-6 M β-amyloidon contraction induced by phenylephrine (2, 4, 8, & 16×10^-8 M is shown in Table 1). The maximum contraction in the absence of β-amyloid is taken as 100% and the values obtained following exposure to β-amyloid are expressed as percent of control value. After washing out phenylephrine and acetylcholine of the control contraction, β-amyloid augmented the phenylephrine induced contractions (P1). This effect was blocked by SOD. Washing out the phenylephrine and acetylcholine of the post peptide contraction and repeating the contractions caused further enhancement (P2). Values represent the mean±SEM of nine or more experiments.
The tissue was then incubated for fifteen minutes with β-amyloid (5×10^-7 M) with or without the drug, followed by contractions with PE. The concentrations compounds used were: L-NMMA, an inhibitor of NO synthase (10^-4 M); indomethacin, an inhibitor of the cyclooxygenase pathway (10^-5 M); SQ 29548, a thromboxane A2 receptor antagonist (10^-5 M); and catalase (1000 units/ml). Values are represented as percentage of the maximal contraction obtained with β-amyloid and PE alone and standardized to remove the intrinsic effects (if any) of each drug on PE contraction alone. The results represent the mean±SEM of five or more experiments.

rat coronary arteries = experiment: Rat coronary artery constriction and relaxation (U46619, acetylcholine); conditions: for constriction of rat coronary artery by the peptide: 10^-6 M peptide
Protocol: The effects of β-amyloid peptide were examined on samples of rat coronary arteries prepared as described above. Referring specifically to FIG. 1, rat coronary arteries were treated with β-amyloid peptide (Aβ40) causing constriction of the coronary arteries.
FIG. 3 illustrates the effect of various amyloid fragments on the constriction of rat coronary arteries. Following control constriction with 10^-7 M U46619, the tissue samples were rinsed, equilibrated with buffer, and treated with 10^-6 M Aβ peptides for fifteen minutes. Following treatment with the Aβ peptides, the blood vessels were rinsed and again exposed to U46619. The values are expressed as percent of control constriction produced by U46619 alone.
The effect of pretreatment of coronary arteries with a single dose (10^-6 M) of A40 on acetylcholine induced relaxation is shown in FIG. 20. The blood vessel was preconstricted with 10^-7 M U46619 and relaxed with increasing doses of acetylcholine (10^-9 M to 10^-5 M).

rat aorta = experiment: Enhancement of endothelin-1 (ET-1) induced vasoconstriction of rat aorta; conditions: for enhancement of ET-1 contraction: peptide 1 μM (Aβ25-35 1 μM and 5 μM) ten minutes prior to first ET-1 dose
Protocol: Normal Sprague-Dawley rats were sacrificed by decapitation, and freshly dissected rat aorta was segmented into rings and suspended in Ringers buffer using a tensiometer linked to the MacLab system. Following a two hour equilibration period, the "pretreatment" contraction was carried out. The aortic rings were contracted using a range of doses of endothelin-1 and relaxed using a single odes of acetylcholing (Ach(10^-7 M)). […] The dose of each Aβ peptide was 1 μM, with the exception of Aβ25-35 (1 μM and 5 μM), and was added ten minutes prior to the first ET-1 dose. For SOD treatment we added 150 U/ml 30 seconds before the addition of Aβ.
Endothelium was removed by gently passing a glass pipette, dipped in saline solution, through the lumen of the aortae several time, allowing the pipette to gently brush the endothelial surface. Endothelium was removed from the aortae prior to hanging in the tissue bath system. Both pre-and post treatment contractions involved a single does of ET-1 (5×10^-9 M).
In all cases the mean difference in percentage contraction in the pre- and post-contractions (before and after addition of test compound respectively) was measured, and compared between the two. Endogenous production of ET-1 was measured using an ET-1 RIA kit (Peninsula Laboratories).

blood vessel (rat aorta) = experiment: Vascular response of blood vessel rings in tissue bath (basal tension, β-amyloid induced vasoactivity)
Protocol: Freshly excised rat and porcine blood vessels were placed in Kreb's bicarbonate buffer equilibrated with 5% CO2 in O2. The buffer composition consisted of 118.2 mM NaCl, 4.7 mM KCl, 1.2 mM MgSO4, 2.5 mM CaCl2, 1.2 mM NaH2 PO4, 23 mM NaHCO3 and 11.2 mM glucose. After cleaning the vessels free of fat and other adhering tissues, the vessels were cut into ring segments of approximately 3 mm in length. Care was taken not to damage the intimal surface.
The endothelium was removed from some preparations by rubbing the inside of the lumen with a metal spatula for six to ten seconds and subsequent rinsing with buffer. The removal of endothelium was confirmed by testing for relaxation to acetylcholine [Furchgott and Zawadzki, 1980].
as §1
Referring to FIG. 10, the arrow indicates the addition of 10^-6 M β-amyloid. The control tissue received no β-amyloid. SOD (150 units/ml) was added thirty seconds prior to the addition of β-amyloid. The maximum contraction induced by β-amyloid was 1.14±0.13 (g) and in presence of SOD the contraction was reduced to 0.04±0.02 (g). Values represent the mean±SEM of five separate experiments.

[1] = system: human aortic endothelial cel line (HAEC); experiment: Aβ toxicity on HAEC and its prevention (trypan blue exclusion, HE stain); conditions: pimozide 10 μM, three hours post treatment
Protocol: (§2) All these cells were maintained at 37° C., under an atmosphere containing 5% CO2. For the present experiments, HAEC and BE(2)-M17 were seeded at densities of 2×10^4 cells per well in 24-23ll clusters.
(§3) The experiments were terminated one half, one, two and three hours post treatment by detachment with Trypsin/EDTA solution and followed by a toxicity assay with trypan blue exclusion. In parallel experiments, cells were attached to a round Thermanox (Nunc) at the bottom of the well, and were stopped three to 24 hours post treatment by fixation with 4% neutral formalin solution which was followed by Hematoxylin-Eosin stain to show morphology.
(§4) Morphological changes in cells were monitored throughout the course of the experiment with an inverse phase-contrast microscope. After termination of the experiments, the cells fixed on the Thermanox were subjected to routine Hematoxylin-Eosin (HE) stain. The morphological characteristics of toxic cells were observed under light microscope and typical results were recorded by photographs.
(§5) For approximate quantification of Aβ toxicity of HAEC, modified procedure for trypan blue exclusion was employed. In brief, the detached cells were resuspended with an appropriate volume of culture media, 20 μl of this cell suspension was mixed with an equivalent volume of 4% Trypan-blue solution thoroughly, and allowed to sit for two minutes after mixing. Approximately 9 μl of the mixture was transferred to a hemocytometer for cell counting. The cell viability was determined by the equation: [formula] In the case of severe toxicity, where some of the cells were lysed, the total cell numbers were adjusted by that of controls. In this experiment, counts for each sample were triplicated.

[2] = system: human aortic endothelial cel line (HAEC)
Protocol: as §2, §3, §4, §5

[3] = system: human neuroblastoma cell line (BE(2)-M17); experiment: Aβ toxicity on BE(2)-M17 (trypan blue exclusion); type: cell-based; conditions: same concentrations as HAEC cultures, up to day eight; data not shown
Source text: Trypan blue exclusion was used for the cell viability assay.

Question: For `CNC(=N)NCCC[C@H](N)C(=O)O` [L-NMMA], which “effect on β-amyloid induced enhancement of PE mediated contraction” value (from here on “effect on β-amyloid induced enhancement”) (aortic rings) is on record?
Answer: None of the compounds exerted any significant effect

Question: How did the “effect on β-amyloid induced enhancement” value (aortic rings) turn out when `O=C(O)CCC/C=C\C[C@@H]1[C@H](CNNC(=O)Nc2ccccc2)[C@H]2CC[C@@H]1O2` [SQ 29548] was run?
Answer: None of the compounds exerted any significant effect

Question: With `CCCCC[C@H](O)/C=C/[C@@H]1[C@@H](C/C=C\CCCC(=O)O)[C@H]2CO[C@@H]1C2` [U46619] as the compound, how does the “constriction of rat coronary artery by vasoconstrictor” value (rat coronary arteries; 10^-7 M) read?
Answer: caused constriction of the blood vessel

Question: `Oc1ncnc2[nH]ncc12` [allopurinol] was tested. Which “effect of allopurinol on Aβ enhancement” value (rat aorta) did it give?
Answer: No effect on Aβ enhancement

Question: Which “effect on β-amyloid induced enhancement” value (aortic rings) does the source give for `COc1ccc2c(c1)c(CC(=O)O)c(C)n2C(=O)c1ccc(Cl)cc1` [indomethacin] here?
Answer: None of the compounds exerted any significant effect

Question: `CNC[C@H](O)c1cccc(O)c1` [phenylephrine] was tested. Which Emax at 1000 µM (blood vessel (rat aorta); Rattus norvegicus, phenylephrine (1 mM), viability test of vessel, read-out: response elicited, of the maximum response) did it give?
Answer: 80%

Question: And the “constriction of blood vessel” value (blood vessel (rat aorta); with or without endothelium)?
Answer: constricted in response to phenylephrine with or without endothelium

Question: With `O=c1[nH]c2ccccc2n1C1CCN(CCCC(c2ccc(F)cc2)c2ccc(F)cc2)CC1` [pimozide] as the compound, how does the “own toxicity of the blocker on HAEC” value [1] read?
Answer: seems to be toxic itself

Question: Which results are given for `COc1ccc(CCN(C)CCCC(C#N)(c2ccc(OC)c(OC)c2)C(C)C)cc1OC` (stereo not shown) [verapamil]?
Answer: ET-1 contraction with the compound alone (rat aorta; verapamil 50 μM): caused enhancement of contraction; effect on Aβ enhancement of ET-1 contraction (rat aorta; verapamil 50 μM two minutes before Aβ, endothelium present): had no effect on Aβ enhancement

Question: Aβ1-28: β-amyloid peptide fragment 1-28 was tested. Which “constriction of rat coronary artery by the peptide” value (rat coronary arteries) did it give?
Answer: induce constriction of the coronary artery

Question: Which “cell morphology by HE staining” value [2] does the source give for “Aβ1-42: β-amyloid peptide with forty-two amino acids; supplied by RBI and/or MD Enterprise” here?
Answer: highly vacuolized cytoplasm, blebbing cell membranes and swelling cell bodies

Question: And the “cell viability one half hour post treatment” value [2]?
Answer: significant reduction of cell viability

Question: What about the “time and dose dependence of toxic effects on HAEC” value [2] of the same compound?
Answer: time-and dose-dependent manner

Question: And the “toxic effect on differentiated BE(2)-M17 cells” value [3]?
Answer: not toxic effect was noticed

Question: And the “enhancement of vasoconstriction compared with Aβ1-40” value (rat aorta)?
Answer: decreased enhancement of vasoconstriction

Question: And the “enhancement of ET-1 contraction” value (rat aorta)?
Answer: also enhanced the ET-1 contraction

Question: For “Aβ25-35: fragment of Aβ, widely regarded to be the neurotoxic fragment (GSNKGAIIGLM; Amyloid-beta protein 42; UniProt P05067 696-706, looked up, fragment)”, which “constriction of rat coronary artery by the peptide” value (rat coronary arteries) is on record?
Answer: induce constriction of the coronary artery

Question: What about the “cell morphology by HE staining” value [2] of the same compound?
Answer: highly vacuolized cytoplasm, blebbing cell membranes and swelling cell bodies

Question: What about the “cell viability one half hour post treatment” value [2] of the same compound?
Answer: significant reduction of cell viability

Question: What about the “time and dose dependence of toxic effects on HAEC” value [2] of the same compound?
Answer: time-and dose-dependent manner

Question: What about the “toxic effect on differentiated BE(2)-M17 cells” value [3] of the same compound?
Answer: not toxic effect was noticed

Question: What about the “enhancement of ET-1 contraction” value (rat aorta) of the same compound?
Answer: unable to enhance contraction even at five times the concentration of Aβ1-40

Question: How did the “protection against β-amyloid enhancement of PE induced contraction” value (aortic rings; preincubation before 10^-6 M β-amyloid, 10^-7 M PE) turn out when albumin was run?
Answer: did not protect

Question: How did the “effect on β-amyloid induced enhancement” value (aortic rings) turn out when catalase was run?
Answer: None of the compounds exerted any significant effect
